Experimental data as given in patent US20040220149A1, “Nerve cell survival promoters containing cyclic phosphatidic acid derivative” (priority 2001, published 2004).

Key:
Assay type in all cases: cell-based
[1] = test system: primary cultured nerve cells derived from a hippocampus of a rat fetal brain; experiment: Influence of P13K inhibitors on the increase of nerve cell survival rate by cPA; settings: 10 μM, nerve cell culture with cPA, 48 hours
Method: Wortmannin (made by Sigma) and LY294002 (made by Sigma), which are inhibitors against phosphatidyl inositol 3-kinase (P13K), were dissolved in DMSO at the concentration of 10 mM and 50 mM respectively, and diluted with PBS. Each of the solutions was added to the cell culture solution at the respective final concentrations of 30 nM and 10 μM. The inhibitors were added to the cell culture solution at 2 hours prior to the addition of cPA, to carry out pretreatment. The cells were photographed at 48 hours after the addition of cPA, and the survival of the cells was morphologically judged on judged on the photographs to calculate the survival rate.

[2] = test system: primary cultured nerve cells derived from a hippocampus of a rat fetal brain; experiment: Measurement of the elongation of neurites
Method: (§1) (A-1) Preparation and Culturing of the Primary Cultured Nerve Cells Derived From a Hippocampus of a Rat Fetal Brain
(§2) Sprague-Dowley rat with 16 days of pregnancy were used as material. The rat were anesthetized with ether, from which the fetal was taken out. The whole brain was taken out under a stereomicroscope, and a hippocampus inside the cerebral cortex was picked out. The picked out hippocampus was collected in a 15 ml centrifuging tube, and 0.5 ml of 2.5% trypsin and a culture solution was added to be a 5 ml solution. The mixture was incubated at 37° C. for 15 minutes and then centrifuged at 3,000 rpm for 15 minutes. The supernatant was removed, 5 ml of the culture solution was added, and the mixture was centrifuged at 3,000 rpm for 15 minutes. The procedure was additionally repeated twice. After adding 3-5 ml of the culture solution, the resultant was pipetted with a Pasteur pipette and then with an injection needle (TERUMO NEEDLE (0.70×38 mm); made by Terumo). The cells, which were finally dissociated through a cell strainer (FALCON Cell Strainer 70 μm; made by FALCON), were primarily cultured on a plate. A culture liquid and a method for coating a plate which allow the nerve cells to be cultured without aggregation, were studied.
(A-3) Measurement of the Elongation of Neurites
In order to study the influence of cPA on the elongation of neurites, the cells were primarily cultured according to the method as described in (A-1), and were photographed at 12, 18 and 24 hours after the start of the culture. The average length of neurites per cell and the number of cells having the neurite at respective time points were analyzed by an image analysis software (NIH Image 1.62).
5 μM of oleoyl cPA was added to the cell culture solution, and the cells were photographed after 24, 48, and 72 hours. The average length of neurites per cell was analyzed by the analysis with the image analysis software (NIH Image 1.62). […] The effect was strongest after 24 hours, as compared with those after 48 hours (1.5 times) and 72 hours (1.2 times) (FIG. 10(a)). Thus, it was considered that the evaluation of the action of cPA on the elongation of neurites at earlier time points was necessary, and the effect of cPA at various levels on the elongation of neurites was studied at 12, 18 and 24 hours after addition. As the result, at the time point after 12 hours, the elongation of neurites in the sample to which cPA of 1.0 μM was added became about 1.7 times that of the control, and gave the maximum value (FIG. 10(b)).

[3] = test system: NIH-3T3, a mouse-derived fibroblast cell; experiment: Formation of actin stress fiber in NIH-3T3 by addition of lysophospholipids; settings: 10 μM lipid, 37° C., 30 minutes, serum-starved NIH-3T3, Rhodamine phalloidin staining; control without lipid: no stress fiber
Method: (A-5) Formation of Stress Fiber in NIH-3T3 by Addition of Various Lysophospholipids
NIH-3T3, a mouse-derived fibroblast cell, was incubated in a Dulbecoo's Modified Eagle's Medium (DMEM) containing 10% fetal bovine serum (FBS; made by Moregate), and was used in the Experiment. 2.5×10^4 cells of the NIH-3T3 were inoculated in a petri dish (10 cm in diameter) paved with cover glasses of 22 mm in diameter, and the medium was replacing with a FBS-free medium after 24 hours, and the cells were incubated in a serum starvation state for 48 hours. 10 μM of the lysophospholipid was added, and the cells were incubated at 37° C. for 30 minutes for stimulation. Then, the cells were fixed in the Dalbecco's PBS containing 3.7% of paraformaldehyde and 0.1% of Triton X-100 at room temperature for 10 minutes. Thereafter, the cells were stained with 5 units/ml of rhodamine phalloidin (made by Funakoshi) at 37° C. for 1 hour. The cover glasses were washed with PBS thrice, and observation was carried out by a cofocus laser microscope TCS NT Control laser Scanning Microscope (made by Leica).
The product obtained by the A sp362-derived PLD reaction was studied with respect to its biochemical activity in order to confirm further that it was a compound which is identical to cPA. Namely, the activity of forming actin stress fiber in a fibroblast cell, one of the physiological acteivities of cPA, was studied. To NIH-3T3, i.e. a fibroblast cell line derived from mouse, in the subconfluent state in the serum starvation state, each 10 μM of LPA, a chemically synthesized PHYLPA, or cPA, i.e. the PLD reaction product was added at 37° C. for 30 minutes, and then actin stress fiber was stained with Rhodamine phalloidin, and observation was carried out.

[4] = test system: primary cultured nerve cells derived from a hippocampus of a rat fetal brain; experiment: Survival rate of primary cultured nerve cells derived from rat fetal hippocampus
Method: as §1
as §2, with “studied. […]” for “studied.”

For `O=c1cc(N2CCOCC2)oc2c(-c3ccccc3)cccc12` [LY294002], the “cytotoxicity (cell morphology)” value [1] was “many cells were destroyed and deformed”.
For nerve growth factor [NGF], the “elongation of neurites compared with that of 1.0 μM cPA (about 1.7 times control)” value ([2]; (optimal level), after 12 hours) was “comparable”.
With `CCCCCC[C@@H]1C[C@@H]1CCCCCCCC(=O)OC[C@@H]1COP(=O)(O)O1` [PHYLPA] the “formation of actin stress fiber” value [3] was “the formation of stress fibers was observed”.
In the case of lysophosphatidic acid [LPA], the “formation of actin stress fiber” value [3] is reported as “the formation of stress fibers was observed”.
For `CCCCCCCC/C=C\CCCCCCCC(=O)OCC1COP(=O)(O)O1` (stereo not shown) [oleoyl cPA, 1-oleoyl cyclic phosphatidic acid], the “survival of the cells compared with control without cPA addition” value ([4]; 5 μM, serum-free culture) was “the survival of the cells became better”, the “cPA level most effective for the cell survival” value ([4]; 0.5, 1.0, 5.0 or 10.0 μM tested, cell density 3.0×10^5 cells/cm^2) was 1.0 µM and the “formation of actin stress fiber” value [3] was “the formation of stress fibers was observed”. For the same molecule, the “ratio of cells having neurites” value ([2]; 1.0 μM, 24 hours after addition) was “high”, the “elongation of neurites relative to control (maximum value)” value ([2]; 1.0 μM, after 12 hours) was “about 1.7 times” and the “average length of neurites per cell relative to control” value ([2]; 5 μM, after 24 hours) was “twice longer than that of the control”. For the same molecule, the “average length of neurites per cell relative to control” value ([2]; 5 μM, after 48 hours) was 1.5 times, the “average length of neurites per cell relative to control” value ([2]; 5 μM, after 72 hours) was 1.2 times and the “elongation of neurites compared with control without cPA addition” value ([2]; 5 μM, serum-free culture) was “the elongation of neurites was also observed”.
